These results are taken from patent US4242262A, “9-Nitromethyldeoxyclavulanic acid derivatives preparation and compositions” (Beecham Group Limited, priority 1977, dated 1980).

Test [1] concerns Kleb. E 70. As to the kind of experiment: MIC of ampicillin alone or with compound of the Example, Kleb. E 70. It counts as cell-based.
For test [2], the system named is Proteus C 889. As to the kind of experiment: MIC of ampicillin alone or with compound of the Example, Proteus C 889. The test is classed as cell-based.
[3] abbreviates: table 2 (no quantity or unit in head), Ampicillin alone.

SMILES strings stand for the structures.

Regarding `CC1(C)S[C@@H]2[C@H](NC(=O)[C@H](N)c3ccccc3)C(=O)N2[C@H]1C(=O)O` [Ampicillin], the MIC (as a rule, the smallest concentration in the dilution series that meets the test's criterion for growth inhibition) is > 500 µg/mL in test [1] (table 1, Ampicillin alone); 22 500 in test [1] (setting [3]); > 500 µg/mL in test [2] (table 1, Ampicillin alone); > 500 µg/mL in test [2] (setting [3]).
